{
  "source": "patent US11612605B2",
  "about": "“(+)-azasetron for use in the treatment of ear disorders” (SENSORION, priority 2016, dated 2023)",
  "test_system": "SSNHL after acoustic trauma",
  "assay": "SSNHL model: acoustic trauma (120 dB octave band noise), ABR and DPOAE audiometry",
  "assay_type": "in vivo, male Wistar rats",
  "method": "All experiments were performed using 7-week-old male Wistar rats (CERJ, Le Genest, France) in accordance with the French Ministry of Agriculture regulations and European Community Council Directive no. 86/609/EEC, OJL 358. The rats were fed a standard diet ad libitum and maintained on a 12 hours' light-dark cycle.\nAuditory Brainstem Reponses (ABR) and Distortion Product Otoacoustic Emissions (DPOAE) were recording using a RZ6 Auditory Workstation (Tucker-Davis Technologies, Alachua, Fla., USA) with animals deeply anesthetized using 90 mg/kg ketamine and 10 mg/kg xylazine and placed on a 35° C. recirculating heating pad inside a sound attenuating cubicle (Med Associates Inc., St. Albans, Vt., USA) throughout the experiment.\nFor ABR recordings, three stainless steel needle electrodes were placed subdermally over the vertex, the right mastoid and right hind leg of each animal. Tone-pips (5 msec duration presented at a rate of 21/s) at 8, 16 and 24 kHz were delivered to the right ear using a calibrated MF-1 speaker in closed-field configuration (Tucker-Davis Technologies, Alachua, Fla., USA) at attenuating intensity until no reproducible response could be recorded. Close to the ABR threshold, the responses to 1000 acoustic stimuli in 5 dB steps were averaged. Responses were low-pass filtered at 3 kHz.\nDPOAEs were recorded and using ER10B+ Low Noise DPOAE microphone (Etymotic Research, Inc., Elk Grove Village, Ill., USA) with acoustic stimuli delivered by two calibrated MF-1 speakers in closed-field configuration (Tucker-Davis Technologies, Alachua, Fla., USA). DPOAEs were recorded at fixed stimulus levels (L1=L2=70 dB SPL), with an f2/f1 ratio of 1.2. Responses were recorded at 4, 8, 16, 24 and 32 kHz.\nAnimals were exposed to 120 dB octave band noise (8-16 kHz) for 2 hours in groups of 4 rats, placed in individual compartments of a custom built circular cage placed on a 30-cm diameter platform rotating at 3 turns/minute (Aqila Innovation, Valbonne, France). The calibrated octave band noise generated by the RZ6 SigGen software was further amplified by a Crown D-75 amplifier in bridge mode (Crown Audio, Elkhart, Ind., USA) and delivered by four Beyma CPI6 compression tweeters (Acustica Beyma S. L., Moncada, Valencia, Spain) positioned 39 cm above the rotating platform, each 10 cm from the platform center.\nThe ability of the racemic and two enantiomers of azasetron hydrochloride to reduce SSNHL after acoustic trauma was evaluated in a randomized, vehicle-controlled study with 7 weeks old male Wistar rats. Rats were randomized to receive 4.22 mg/kg of the racemic, two enantiomers of azasetron or vehicle control (physiological saline) by intraperitoneal injection immediately after acoustic trauma, followed by daily dosing for a total of 14 days. Two days prior to acoustic trauma, baseline audiometric readings using auditory brainstem response (ABR) (8, 16, and 24 kHz) were recorded for each animal. Animals were exposed to 120-dB octave-band noise (8-16 kHz) for 2 hours to induce acoustic trauma.\nThe ability of the (+)-enantiomer of azasetron hydrochloride to reduce SSNHL after acoustic trauma was evaluated in a randomized, vehicle-controlled study in male Wistar rats, 7 weeks of age. Rats were randomized to receive 5, 10, or 20 mg/kg of the (+)-enantiomer of azasetron hydrochloride or vehicle control (physiological saline) by oral gavage immediately after acoustic trauma, followed by daily dosing for a total of 14 days. Two days prior to acoustic trauma, baseline audiometric readings using auditory brainstem response (ABR) (8, 16, and 24 kHz) and distortion-product otoacoustic emissions (DPOAE) (4, 8, 16, 24, and 32 kHz) were recorded for each animal. Post-trauma audiometry recordings were conducted at 14 days.\nThe ability of the racemic azasetron hydrochloride by oral administration to reduce SSNHL after acoustic trauma was also evaluated. […]",
  "key": {"[1]": {"conditions": "10 mg/kg oral gavage daily 14 days, baseline to day 14"}, "[2]": {"conditions": "20 mg/kg oral gavage daily 14 days, baseline to day 14"}, "[3]": {"conditions": "10 mg/kg oral gavage daily 14 days after acoustic trauma"}},
  "data": [
    {"smiles": "CN1C(=O)COc2c(C(=O)N[C@H]3CN4CCC3CC4)cc(Cl)cc21", "note": "[(+)-azasetron]", "values": [
      {"measurement": "ABR threshold shifts compared with racemic azasetron, (−)-enantiomer and vehicle", "setting": "4.22 mg/kg intraperitoneal, daily for 14 days after acoustic trauma, 8, 16, 24 kHz", "value": "reduced ABR threshold shifts more than racemic azasetron or (−)-enantiomer"},
      {"measurement": "mean improvement in hearing (ABR)", "setting": "[1]", "value": 22.3, "unit": "dB"},
      {"measurement": "mean reduction of ABR threshold shifts", "setting": "[1]", "value": 35.1, "unit": "%"},
      {"measurement": "mean improvement in hearing (ABR)", "setting": "[2]", "value": 19.4, "unit": "dB"},
      {"measurement": "mean reduction of ABR threshold shifts", "setting": "[2]", "value": 30.5, "unit": "%"},
      {"measurement": "mean reduction of DPOAE amplitude loss", "setting": "[2]", "value": 51.2, "unit": "%"},
      {"measurement": "reduction of hearing loss (average) by ASLHA criteria versus vehicle control", "setting": "10- and 20-mg/kg oral doses", "value": "from moderately severe (56 to 70 dB) to mild/moderate (26 to 40 dB/41 to 55 dB)"}
    ]},
    {"smiles": "CN1C(=O)COc2c(C(=O)NC3CN4CCC3CC4)cc(Cl)cc21", "note": "(racemic) [Racemic azasetron, N-(1-azabicyclo[2.2.2]octan-8-yl)-6-chloro-4-methyl-3-oxo-1,4-benzoxazine-8-carboxamide]", "values": [
      {"measurement": "protective effect on ABR thresholds", "setting": "[3]", "value": "small tendency towards a protective effect"},
      {"measurement": "protective effect on DPOAE amplitude loss", "setting": "[3]", "value": "small tendency towards a protective effect"}
    ]}
  ]
}
